The values below come from ChEMBL document CHEMBL5120828, “Identification and optimisation of a pyrimidopyridone series of IRAK4 inhibitors” (Bioorg Med Chem, 2022).

In data set [1] the target is T1, Interleukin-1 receptor-associated kinase 4 (Homo sapiens, UniProt Q9NWZ3).
T1 sequence (Q9NWZ3 whole entry): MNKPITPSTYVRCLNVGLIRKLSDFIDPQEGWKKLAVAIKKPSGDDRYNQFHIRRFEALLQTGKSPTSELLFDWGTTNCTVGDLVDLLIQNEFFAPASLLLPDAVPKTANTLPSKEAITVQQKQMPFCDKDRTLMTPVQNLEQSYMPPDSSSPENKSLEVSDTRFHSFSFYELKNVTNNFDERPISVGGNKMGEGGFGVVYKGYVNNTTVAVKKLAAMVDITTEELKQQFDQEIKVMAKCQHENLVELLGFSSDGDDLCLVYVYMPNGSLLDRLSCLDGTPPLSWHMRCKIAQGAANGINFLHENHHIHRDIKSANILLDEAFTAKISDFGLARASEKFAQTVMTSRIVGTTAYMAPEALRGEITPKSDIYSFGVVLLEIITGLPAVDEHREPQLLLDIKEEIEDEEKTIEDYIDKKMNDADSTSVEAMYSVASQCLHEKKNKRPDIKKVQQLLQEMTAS
Description: Inhibition of human recombinant IRAK4 assessed as unphosphorylated KKARFSRFAGSSPSQSSMVAR peptide substrate measured after 2 hrs by LC-MS/MS analysis.

Data set [2] is described as follows: Intrinsic permeability across apical to basolateral side in human Caco-2 cells. It is filed as ADME, cell-based. For orientation: Caco-2 monolayers are a common model of the intestinal barrier.
Data set [3] can be described thus: Efflux ratio of permeability in human Caco-2 cells. Type of data set: ADME, cell-based.
A short description of data set [4]: Octanol/water partition coefficient, logP of compound at pH 7.4 by shake-flask method. Type of data set: physicochemical.
The target of data set [5] is T1, Interleukin-1 receptor-associated kinase 4. In words: Inhibition of IRAK4 in IL1-stimulated human KARPAS-299 cells assessed as fluorescence intensity. Type of data set: cell-based.
Data set [6] can be described thus: Fraction unbound in human plasma. It is filed as ADME, cell-free.
The nature of data set [7]: Aqueous solubility of compound. It is filed as physicochemical. The following applies: buffer.
Data set [8] in a line: Metabolic stability in human liver microsomes assessed as intrinsic clearance. Type of data set: ADME. (In general: Microsomes from liver hold many membrane-bound enzymes, among them those of drug oxidation.)
Data set [9] deals with Voltage-gated inwardly rectifying potassium channel KCNH2 (Homo sapiens, UniProt Q12809). In words: Inhibition of human ERG channel. Type of data set: toxicity.

≈ marks a conversion by molar mass, not a printed value.

Chain of Voltage-gated inwardly rectifying potassium channel KCNH2 (Q12809 whole entry): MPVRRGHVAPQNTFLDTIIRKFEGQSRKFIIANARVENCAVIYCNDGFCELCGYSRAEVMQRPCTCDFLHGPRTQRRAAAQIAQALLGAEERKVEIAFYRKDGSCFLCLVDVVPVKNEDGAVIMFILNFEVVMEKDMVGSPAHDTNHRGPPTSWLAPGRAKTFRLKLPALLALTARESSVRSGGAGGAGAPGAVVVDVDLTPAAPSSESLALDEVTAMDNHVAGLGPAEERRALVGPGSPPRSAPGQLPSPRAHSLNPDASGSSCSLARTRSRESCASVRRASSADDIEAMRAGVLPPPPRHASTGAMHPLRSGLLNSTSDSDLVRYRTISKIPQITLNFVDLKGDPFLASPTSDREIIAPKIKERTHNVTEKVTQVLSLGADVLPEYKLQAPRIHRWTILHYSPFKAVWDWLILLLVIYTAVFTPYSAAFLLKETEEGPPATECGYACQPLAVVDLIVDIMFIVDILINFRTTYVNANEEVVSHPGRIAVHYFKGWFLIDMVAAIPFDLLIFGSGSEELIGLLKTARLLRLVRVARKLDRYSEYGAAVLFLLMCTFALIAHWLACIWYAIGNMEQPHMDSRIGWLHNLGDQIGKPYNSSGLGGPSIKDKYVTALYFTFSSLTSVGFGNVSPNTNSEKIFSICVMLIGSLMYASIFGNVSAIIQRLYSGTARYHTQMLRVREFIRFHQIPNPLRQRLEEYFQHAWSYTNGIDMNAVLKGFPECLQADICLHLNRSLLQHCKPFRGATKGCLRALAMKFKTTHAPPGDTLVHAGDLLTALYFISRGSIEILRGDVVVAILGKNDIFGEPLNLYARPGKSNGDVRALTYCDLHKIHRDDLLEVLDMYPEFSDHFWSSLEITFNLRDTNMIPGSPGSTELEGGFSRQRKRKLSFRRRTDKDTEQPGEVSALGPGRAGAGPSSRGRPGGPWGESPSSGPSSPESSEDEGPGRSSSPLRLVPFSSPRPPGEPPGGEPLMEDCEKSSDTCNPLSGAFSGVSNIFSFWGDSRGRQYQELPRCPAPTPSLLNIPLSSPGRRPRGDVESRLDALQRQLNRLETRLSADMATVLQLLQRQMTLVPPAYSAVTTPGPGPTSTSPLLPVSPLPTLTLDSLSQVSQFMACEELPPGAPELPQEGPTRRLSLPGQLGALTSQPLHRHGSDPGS

For `C[C@H](F)Cn1ccc2nc(Nc3cnn(C4CC5(C4)CN(C)C5)c3)nc(NC3(C)CC3)c2c1=O`, the IC50 (as a rule, the concentration that gives 50% inhibition) is 0.002 µM in [1], 0.12 µM in data set [5] and 4.2 µM in [9]. The Papp A→B (as a rule, how fast a substance crosses the layer from the apical side) in [2] turned out to be 17 ×10⁻⁶ cm/s. In addition, in data set [3], the efflux ratio (in general, the permeability from basolateral to apical divided by that in the opposite direction, in the common usage) was found to be 6.1. The logD (usually lipophilicity at a set pH, counting ionised and neutral species) in data set [4] was determined as 2.1. Besides, the fraction unbound (in general, free concentration divided by total concentration) in data set [6] was 0.17. In data set [7], the solubility – broadly, the dissolved amount per volume that the medium holds – is 890 µM (≈ 415 µg/mL). The CLint in data set [8] came to 10 µL/min/mg.
